From US20090247492A1, “MANGANESE BASED ORGANOMETALLIC COMPLEXES, PHARMACEUTICAL COMPOSITIONS AND DIETETIC PRODUCTS” (MEDESIS PHARMA S.A.,, priority 2003, published 2009)
“And” between values parts separate entries of the source, which are not always exact repeats. Identical values can stand only once.

Assays:
[1] = test system: edema produced by injection of adriamycin under the arch of the hind paw of the rat; assay: adriamycin test: paw edema in the Wistar rat (anti-free radical activity); assay type: in vivo; parameters: Paw volume, group mean: unit not given beside the values; settings: for Paw volume, individual animals / Paw volume, group mean / Percentage paw edema, individual animals / Percentage paw edema, group mean: 100 mg/kg IP daily; for Paw volume, group mean / Percentage paw edema, group mean: 10 rats; for Percentage of edema inhibition (protection): vs olive oil control, Diosmine 100 mg/kg IP, Example 4 1 ml/kg IP
Experimental: The adriamycin test is a specific test used to show evidence of the anti-free radical activity of a test substance. This test is described in G. Jadot, Cedema from adriamycin in the Wistar rat. SuperOxide Dismutases, p 73-77, Masson Ed., Paris, 1988.
One hour following injection of Adriamycin, a temporary inflammatory response lasting 12 hours can be observed. This first phase corresponds to the release of histamine, serotonine and the accumulation of polynuclear neutrophiles. A second inflammatory phase commences on the third day following administration and continues for 5 days. During this inflammatory phase, vascular hyperpermeability […] endothelial cell membrane alteration produced by free radical oxidative damage. Steroidal and non-steroidal anti-inflammatory drugs are not effective during this second inflammatory phase.
Research into an anti-free radical activity in the rat by intra-peritoneal administration consists of measuring the reduction in edema produced by injection of adriamycin under the arch of the hind paw of the rat.
Male Wistar rats were used for these tests, after a quarantine period of 15 days.
(Edema was induced by subcutaneous injection of a 0.2 ml solution of adriamycin (2.5 mg/ml) in the arch of the right hind paw of the rat (Siegel's method modified by Jadot (1988)).
The compounds tested were administered 2 hours before the first measurements on the first day, and 1 hour before the measurements on the following days, until the 8th day.
The measurement of edema volume was determined by plethysmography and was performed immediately before injection of adriamycin on the first day (base measurement), and then every day at the same time.
The treatment was maintained for the entire duration of the study. The control group received the dosing vehicle only.
Following the establishment of groups of 10 animals, daily intra-peritoneal administration was carried out according to the following scheme:
Negative control: animals administered olive oil (1 ml/kg).
Positive control: animals administered 100 mg/kg de diosmine (1 ml/kg).
Example 4: animals administered example 4 (1 mil/kg)
Paw edema, expressed as a percentage, is calculated for each animal at each time point:
The percentage reduction in paw oedema at each time point and for each group of animals are calculated as follows: […]
Anti-free radical activity is shown by a significant reduction in paw volume in the treated group compared to the control group.

[2] = activity of the sterol constituent (test not specified); settings: pure sterol in place of sitosterol
[3] = test system: edema produced by injection of adriamycin under the arch of the hind paw of the rat; settings: cf JL Jadot; cited from earlier work
[4] = iv-injected, rat; cited from earlier work

COc1ccc(-c2cc(=O)c3c(O)cc(O[C@@H]4O[C@H](CO[C@@H]5O[C@@H](C)[C@H](O)[C@@H](O)[C@H]5O)[C@@H](O)[C@H](O)[C@H]4O)cc3o2)cc1O [Diosmine]
Paw volume, individual animals ([1]; D1 (base), before adriamycin, 100 mg/kg): 116 and 108 and 102 (2×) and 105 and 120 and 113 and 107 and 103 and 91 | Paw volume, group mean ([1]; D1 (base), before adriamycin): 106.70 | Paw volume in comparison to the negative control ([1]; D2-D7, highest significance for Example 4 at D3 and D4 (p<0.001), disappears at D8): statistically significant difference | Paw volume, individual animals ([1]; D2): 129 and 152 and 112 (2×) and 107 and 128 and 135 and 118 and 110 and 105 | Percentage paw edema, individual animals ([1]; D2): 11.21% and 40.74% and 9.80% (2×) and 1.90% and 6.67% and 19.47% and 10.28% and 6.80% and 15.38% | Paw volume, group mean ([1]; D2): 120.80 | Percentage paw edema, group mean ([1]; D2): 13.21% | Percentage of paw edema, change versus control ([1]; D2 to D5, most significant at D3 for Example 4 (p<0.001)): significant decrease | Paw volume, individual animals ([1]; D3): 162 and 181 and 142 and 126 and 158 and 160 (2×) and 138 and 134 and 161 | Percentage paw edema, individual animals ([1]; D3): 39.66% and 67.59% and 39.22% and 20.00% and 31.67% and 41.59% and 49.53% and 35.29% and 30.10% and 76.92% | Paw volume, group mean ([1]; D3): 152.20 | Percentage paw edema, group mean ([1]; D3): 43.16% | Percentage of edema inhibition (protection) ([1]; D3): 44.15% | Paw volume, individual animals ([1]; D4): 152 (2×) and 121 and 180 and 143 and 172 and 158 and 142 and 223 and 187 | Percentage paw edema, individual animals ([1]; D4): 31.03% and 12.04% and 76.47% and 36.19% and 43.33% and 39.82% and 32.71% and 118.63% and 81.55% and 67.03% | Paw volume, group mean ([1]; D4): 163.00 | Percentage paw edema, group mean ([1]; D4): 53.88% | Percentage of edema inhibition (protection) ([1]; D4): 36.98% | Paw volume, individual animals ([1]; D5): 195 and 200 and 152 and 172 and 188 and 175 and 186 and 165 and 173 and 170 | Percentage paw edema, individual animals ([1]; D5): 68.10% and 85.19% and 49.02% and 63.81% and 56.67% and 54.87% and 73.83% and 61.76% and 67.96% and 86.81% | Paw volume, group mean ([1]; D5): 177.6 | Percentage paw edema, group mean ([1]; D5): 66.80% | Percentage of edema inhibition (protection) ([1]; D5): 21.77% | Paw volume, individual animals ([1]; D6): 193 and 194 and 153 and 179 and 177 and 172 and 199 and 167 and 183 and 158 | Percentage paw edema, individual animals ([1]; D6): 66.38% and 79.63% and 50.00% and 70.48% and 47.50% and 52.21% and 85.98% and 63.73% and 77.67% and 73.63% | Paw volume, group mean ([1]; D6): 177.50 | Percentage paw edema, group mean ([1]; D6): 66.72% | Percentage of edema inhibition (protection) ([1]; D6): 12.03% | Paw volume, individual animals ([1]; D7): 195 and 176 and 148 and 174 and 164 (2×) and 166 and 172 and 173 and 150 | Percentage paw edema, individual animals ([1]; D7): 68.10% and 62.96% and 45.10% and 65.71% and 36.67% and 46.90% and 60.75% and 60.78% and 67.96% and 64.84% | Paw volume, group mean ([1]; D7): 168.20 | Percentage paw edema, group mean ([1]; D7): 57.98% | Percentage of edema inhibition (protection) ([1]; D7): 14.05% | Paw volume, individual animals ([1]; D8): 180 and 173 and 145 and 156 and 165 and 164 (2×) and 175 and 159 and 154 | Percentage paw edema, individual animals ([1]; D8): 55.17% and 60.19% and 42.16% and 48.57% and 37.50% and 45.13% and 63.55% and 60.78% and 54.37% and 69.23% | Paw volume, group mean ([1]; D8): 163.50 | Percentage paw edema, group mean ([1]; D8): 53.67% | Percentage of edema inhibition (protection) ([1]; D8): 0% | Free radical protection activity (conclusion) ([1]; edema progression compared to the control group): confirmed its activity

CC[C@H](CC[C@@H](C)[C@H]1CC[C@H]2[C@@H]3CC[C@H]4C[C@@H](O)CC[C@]4(C)[C@H]3CC[C@]12C)C(C)C [sitostanol]
activity of pure sterol [2]: no activity

CC(C)[C@H](C)CC[C@@H](C)[C@H]1CC[C@H]2[C@@H]3CC=C4C[C@@H](O)CC[C@]4(C)[C@H]3CC[C@]12C [campesterol]
activity of pure sterol [2]: no activity

bovine SOD: bovine superoxide dismutase enzyme
Protection against edema from free radical damage [3]: possesses the same characteristics as Diosmine | circulation half life [4]: 7 min
